Consider three compounds from PMC8325564 (Biochemistry, 2020).

For orientation: Kd means a measure of binding affinity in units of concentration. The Km is the substrate concentration at which the rate is half of its maximum. What is called Ki is the equilibrium dissociation constant of an inhibitor or competing ligand from its target. Low values mean tighter binding, high ones weaker binding.

Test [1] concerns the target T1, AKeco (Escherichia coli, UniProt P69441). The following applies: binding to AKeco; cited from earlier work.
The target of test [2] is T2, AK3 (Homo sapiens, UniProt Q9UIJ7). Put plainly: isothermal titration calorimetry. It is filed as binding. The following applies: for ΔHITC0: ITC binding enthalpy; for ΔHITC0 / −TΔSITC0 / ΔGITC0 / Kd: 25 °C; for −TΔSITC0: ITC binding entropy term; for ΔGITC0: ITC binding free energy; for n: ITC binding ratio (stoichiometry); for Kd: ITC. A general note: ITC needs no label: the signal is the heat of the interaction.

Test [3] concerns the target T2, AK3. Put plainly: NMR 15N-HSQC chemical shift titration of ligand binding to AK3.
Test [4] deals with T1, AKeco. Put plainly: NMR titration of ATP to AKeco with adenosine binding sites blocked by AP5A. Details: species or system E. coli.
Another test addresses human α-synuclein (Homo sapiens, UniProt P37840). Put plainly: NMR titration of ATP to α-synuclein. The format is binding.
In a further test the target is LcrG (Yersinia pseudotuberculosis serotype I, UniProt P69958). In words: biochemical. The format is binding.
In test [5] the test system is AKeco (E. coli adenylate kinase). The following applies: cited from earlier work.
Test [6] deals with T2, AK3. Put plainly: biochemical. The following applies: KI´ (competitive inhibition), mixed inhibition model, 1.7 mM ATP, AMP variation.
The target of test [7] is T2, AK3. In words: coupled enzymatic assay of AK3 activity. The format is biochemical.
Setting [8] is: Table 2, average of three technical replicates, pH 7.0.

SMILES strings stand for the structures. Values joined by “and” are separate entries in the source; they are usually repeats but may differ in a detail not shown here. Equal values may be shown once. Read-outs that look alike come from different tables or passages of the source.

T2 sequence (Q9UIJ7 whole entry): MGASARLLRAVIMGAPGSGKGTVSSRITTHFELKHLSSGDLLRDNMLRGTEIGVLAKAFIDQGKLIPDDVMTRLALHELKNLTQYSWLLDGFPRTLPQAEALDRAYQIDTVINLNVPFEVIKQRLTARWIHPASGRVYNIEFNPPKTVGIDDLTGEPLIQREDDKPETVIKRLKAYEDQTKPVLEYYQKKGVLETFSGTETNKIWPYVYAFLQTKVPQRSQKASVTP
T1 sequence (P69441 whole entry): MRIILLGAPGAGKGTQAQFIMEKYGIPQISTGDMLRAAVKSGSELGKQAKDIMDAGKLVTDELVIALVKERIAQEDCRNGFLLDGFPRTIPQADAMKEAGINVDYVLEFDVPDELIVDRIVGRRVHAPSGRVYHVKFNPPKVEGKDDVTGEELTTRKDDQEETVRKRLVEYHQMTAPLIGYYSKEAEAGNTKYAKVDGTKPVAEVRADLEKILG
Sequence of LcrG (P69958 whole entry, looked up): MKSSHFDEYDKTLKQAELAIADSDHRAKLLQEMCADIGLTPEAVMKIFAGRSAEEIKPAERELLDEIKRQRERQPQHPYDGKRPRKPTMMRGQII

With `Nc1ncnc2c1ncn2[C@@H]1O[C@H](COP(=O)(O)O)[C@@H](O)[C@H]1O` [AMP, adenosine monophosphate], the Kd at AKeco [1] was 210 ± 66 µM.
With `Nc1ncnc2c1ncn2[C@@H]1O[C@H](COP(=O)(O)OP(=O)(O)OP(=O)(O)O)[C@@H](O)[C@H]1O` [ATP, adenosine triphosphate], on AK3 [2] (pH 7.0), the ΔHITC0 is listed as −11.1 ± 0.5 kcalmol^−1. Besides, at AK3 [2] (pH 7.0), the “−TΔSITC0” value turned out to be 4.4 ± 0.6 kcalmol^−1. The ΔGITC0 at AK3 [2] (pH 7.0) was −6.7 ± 0.1 kcalmol^−1. The n on AK3 [2] came to 0.94 ± 0.015. The Kd at AK3 [2] (30 mM MOPS pH 7.0, 50 mM NaCl) was approximately 13 µM; at AK3 [2] (setting [8]), 13 ± 2 µM; at AK3 [3] it was 9000 ± 3800 µM; on AKeco [4], 12000 ± 2100 µM; at human α-synuclein, 13000 ± 2400 µM; at LcrG, 12000 ± 800 µM. At AKeco [1], the Kd was 50 µM. For the same compound, the Km in test [5] (AKeco with ATP) was 63 ± 7 µM. Besides, the “difference of the catalytic activity between ATP and GTP” value in test [5] (AKeco) is on record as 60 fold. This compound had a Ki at AK3 [6] of 200 µM.
For `Nc1nc2c(ncn2[C@@H]2O[C@H](COP(=O)(O)OP(=O)(O)OP(=O)(O)O)[C@@H](O)[C@H]2O)c(=O)[nH]1` [GTP, guanosine triphosphate], on AK3 [7], the “catalytic GTP versus ATP specificity” value is approximately 40 fold. On AK3 [2] (pH 7.0), this compound came in with a ΔHITC0 of −11.3 ± 0.3 kcalmol^−1. At AK3 [2] (pH 7.0), the “−TΔSITC0” value was determined as 3.5 ± 0.4 kcalmol^−1. Further, the ΔGITC0 on AK3 [2] (pH 7.0) is listed as −7.8 ± 0.1 kcalmol^−1. For the same compound, at AK3 [2], the n turned out to be 1.07 ± 0.025. Further, the Kd was ~2 µM and 2 µM at AK3 [2] (30 mM MOPS pH 7.0, 50 mM NaCl); 2.1 ± 0.5 µM at AK3 [2] (setting [8]); 1700 ± 1000 µM at AK3 [3].
